Assay results from the supplement of paper PMC10307832.

Columns and labels:
Experiment in all cases: relative viability (nuclei count vs DMSO), 5 days (fraction); higher = more cells survive
[1] = compound: Cn1nnc2c(C(N)=O)ncn2c1=O [Temozolomide] + CC(=O)Nc1cccc(-n2c(=O)n(C3CC3)c(=O)c3c(Nc4ccc(I)cc4F)n(C)c(=O)c(C)c32)c1 [Trametinib] (partner 0.02 µM)
Method in brief: (§1)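 Dosing by pin tool came one day after lung cancer cell lines were seeded in 1536-well plates, using either one drug or a fixed anchor-drug dose plus five library-drug doses (not always all listed) in √10 steps. After 5 days, nuclei were counted on 4× images. Relative viability is treated-well nuclei count divided by vehicle-well nuclei count, and values are medians of duplicate plates.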

AZD5582 + Vorinostat = compound: C[C@@H](C(=O)N[C@@H](C1CCCCC1)C(=O)N2CCC[C@H]2C(=O)N[C@@H]3[C@@H](CC4=CC=CC=C34)OCC#CC#CCO[C@@H]5CC6=CC=CC=C6[C@@H]5NC(=O)[C@@H]7CCCN7C(=O)[C@H](C8CCCCC8)NC(=O)[C@H](C)NC)NC [AZD5582] + O=C(CCCCCCC(=O)Nc1ccccc1)NO [Vorinostat] (partner 1 µM)
Method in brief: as §1

[2] = compound: Cn1nnc2c(C(N)=O)ncn2c1=O [Temozolomide] + CC1(C)CCC(c2ccc(Cl)cc2)=C(CN2CCN(c3ccc(C(=O)NS(=O)(=O)c4ccc(N[C@H](CCN5CCOCC5)CSc5ccccc5)c(S(=O)(=O)C(F)(F)F)c4)cc3)CC2)C1 [Navitoclax] (partner 0.5 µM)
Method in brief: as §1

AZD5582 + Foretinib = compound: C[C@@H](C(=O)N[C@@H](C1CCCCC1)C(=O)N2CCC[C@H]2C(=O)N[C@@H]3[C@@H](CC4=CC=CC=C34)OCC#CC#CCO[C@@H]5CC6=CC=CC=C6[C@@H]5NC(=O)[C@@H]7CCCN7C(=O)[C@H](C8CCCCC8)NC(=O)[C@H](C)NC)NC [AZD5582] + COc1cc2c(Oc3ccc(NC(=O)C4(C(=O)Nc5ccc(F)cc5)CC4)cc3F)ccnc2cc1OCCCN1CCOCC1 [Foretinib] (partner 0.25 µM)
Method in brief: as §1

Cell Line	relative viability ([1]; first compound 0.2 µM)	relative viability ([1]; first compound 0.6325 µM)	relative viability ([1]; first compound 2 µM)	relative viability ([1]; first compound 6.325 µM)	relative viability ([1]; first compound 20 µM)	relative viability (AZD5582 + Vorinostat; first compound 0.001581 µM)	relative viability (AZD5582 + Vorinostat; first compound 0.005 µM)	relative viability (AZD5582 + Vorinostat; first compound 0.01581 µM)	relative viability (AZD5582 + Vorinostat; first compound 0.05 µM)	relative viability ([2]; first compound 0.2 µM)	relative viability ([2]; first compound 0.6325 µM)	relative viability ([2]; first compound 2 µM)	relative viability ([2]; first compound 6.325 µM)	relative viability ([2]; first compound 20 µM)	relative viability (AZD5582 + Foretinib; first compound 0.001581 µM)	relative viability (AZD5582 + Foretinib; first compound 0.005 µM)	relative viability (AZD5582 + Foretinib; first compound 0.01581 µM)	relative viability (AZD5582 + Foretinib; first compound 0.05 µM)
SK-LU-1	0.534	0.487	0.44	0.382	0.361	0.7	0.505	0.824	0.292	1.03	0.88	0.8	0.522	0.189	0.794	0.772	0.843	0.472
SK-MES-1	0.656	0.578	0.663	0.539	0.58	1.08	1.19	1.02	1.26	1.22	1.16	1.23	1.22	1.38	0.878	1.29	0.967	1.24
SW 1573	0.688	0.504	0.56	0.583	0.474	0.492	0.865	1.12	1.12	0.993	1.03	1.05	1	0.935	0.736	1	0.885	0.853
UMC-11	0.728	0.749	0.786	0.643	0.519	0.396	0.391	0.381	0.354	0.338	0.315	0.313	0.281	0.274	0.995	1.12	1.03	1.05
